What is called IC50 is the point on the concentration scale where inhibition reaches its midpoint. Higher therefore signals weaker potency in that assay.

The target in the first assay is T1, Full-length, GST-tagged, human CaMKIIδ (Homo sapiens, UniProt Q13557).
T1 construct: Full-Length, Glutathione-S-Transferase(GST)-Tagged, Human CaMKIIδ was purchased from Carna Biosciences; purchased Carna Biosciences 02-111
T1 sequence (Q13557 1-478 isoform Q13557-12): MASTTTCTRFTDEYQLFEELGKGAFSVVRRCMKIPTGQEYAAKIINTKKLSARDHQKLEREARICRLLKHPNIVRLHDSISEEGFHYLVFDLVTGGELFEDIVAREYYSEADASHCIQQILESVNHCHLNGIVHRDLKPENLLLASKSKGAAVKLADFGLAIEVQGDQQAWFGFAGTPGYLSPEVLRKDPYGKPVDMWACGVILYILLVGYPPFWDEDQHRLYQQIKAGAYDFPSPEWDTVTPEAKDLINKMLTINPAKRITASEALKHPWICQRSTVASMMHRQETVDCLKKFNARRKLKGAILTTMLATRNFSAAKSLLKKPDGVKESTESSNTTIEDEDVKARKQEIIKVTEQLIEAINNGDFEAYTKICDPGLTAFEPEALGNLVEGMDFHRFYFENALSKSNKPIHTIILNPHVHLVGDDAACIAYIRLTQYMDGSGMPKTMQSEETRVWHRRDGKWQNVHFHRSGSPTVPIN
In words: CaMKIIδ binding assay (TR-FRET with BODIPY-labeled probe ligand). Particulars: CaMKIIδ binding assay, results of Table 2. The gist of the method: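 Compounds were tested as 4-fold, eight-point series for 1 hr at room temperature, and IC50 was obtained by logistic fitting against a 3 μM parent-compound control. Signal came from displacement of a 300 nM BODIPY ligand from 0.5 nM GST-CaMKIIδ, detected via Tb-anti-GST in calmodulin/Ca2+ (pH 7.6).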
Regarding `COc1cc2c(cc1Nc1ncc(-c3ccc(C#N)c(O[C@@H](C)Cn4cnnn4)c3)cn1)C(=O)N(CC1COC1)C2` [Example 446, (S)-2-((1-(1H-tetrazol-1-yl)propan-2-yl)oxy)-4-(2-((6-methoxy-2-(oxetan-3-ylmethyl)-3-oxoisoindolin-5-yl)amino)pyrimidin-5-yl)benzonitrile], the IC50 was 10 to 100 nM.
On the same count and under the same terms, the same measure for `C[C@@H](Cn1cnnn1)Oc1cc(-c2cnc(Nc3cn(C4CCN(C5CCN(C)CC5)CC4)nc3C(F)(F)F)nc2)ccc1Cl` [Example 559, (S)-5-(3-((1-(1H-tetrazol-1-yl)propan-2-yl)oxy)-4-chlorophenyl)-N-(1-(1'-methyl-[1,4'-bipiperidin]-4-yl)-3-(trifluoromethyl)-1H-pyrazol-4-yl)pyrimidin-2-amine]: < 10 nM.
For the compound `COc1cc(C2CCN(C3COC3)CC2)c(C)cc1Nc1ncc(-c2ccc(C#N)c(O[C@@H](C)Cn3cnnn3)c2)cn1` [Example 528, (S)-2-((1-(1H-tetrazol-1-yl)propan-2-yl)oxy)-4-(2-((2-methoxy-5-methyl-4-(1-(oxetan-3-yl)piperidin-4-yl)phenyl)amino)pyrimidin-5-yl)benzonitrile], the IC50 was < 10 nM.
On the same count and under the same terms, the result for `COc1cc(C)c(C(=O)N2CCOCC2)cc1Nc1ncc(-c2ccc(C#N)c(O[C@@H](C)Cn3cnnn3)c2)cn1` [Example 440, (S)-2-((1-(1H-tetrazol-1-yl)propan-2-yl)oxy)-4-(2-((2-methoxy-4-methyl-5-(morpholine-4-carbonyl)phenyl)amino)pyrimidin-5-yl)benzonitrile] reads < 10 nM; that for `C[C@@H](Cn1cnnn1)Oc1cc(-c2cnc(Nc3ccc4c(c3)N(C(=O)CCN(C)C)CC4)nc2)ccc1Cl` [Example 437, (S)-1-(6-((5-(3-((1-(1H-tetrazol-1-yl)propan-2-yl)oxy)-4-chlorophenyl)pyrimidin-2-yl)amino)indolin-1-yl)-3-(dimethylamino)propan-1-one], < 10 nM.
Still for that read-out and setting: the same measure for `C[C@@H](Cn1cnnn1)Oc1cc(-c2cnc(Nc3cn(CC4CCN(C5COC5)C4)nc3C(F)(F)F)nc2)ccc1Cl` (stereo partly drawn) [Example 574, 5-(3-(((S)-1-(1H-tetrazol-1-yl)propan-2-yl)oxy)-4-chlorophenyl)-N-(1-((1-(oxetan-3-yl)pyrrolidin-3-yl)methyl)-3-(trifluoromethyl)-1H-pyrazol-4-yl)pyrimidin-2-amine]: < 10 nM.

The same assay, now with this note: CaMKIIδ binding assay; activity class per Table 2.
Consider `COc1ccc(-n2cc(Nc3ncc(-c4ccc(Cl)c(O[C@@H](C)Cn5cnnn5)c4)cn3)c(OCC(F)(F)F)n2)cn1` [Example 901, (S)-5-(3-((1-(1H-tetrazol-1-yl)propan-2-yl)oxy)-4-chlorophenyl)-N-(1-(6-methoxypyridin-3-yl)-3-(2,2,2-trifluoroethoxy)-1H-pyrazol-4-yl)pyrimidin-2-amine], for which the IC50 lay within 10 to 100 nM.
For `C[C@@H](Cn1cnnn1)Oc1cc(-c2cnc(Nc3cn(CC4(O)CCN(C(N)=O)CC4)nc3C(F)(F)F)nc2)ccc1Cl` [Example 888, (S)-4-((4-((5-(3-((1-(1H-tetrazol-1-yl)propan-2-yl)oxy)-4-chlorophenyl)pyrimidin-2-yl)amino)-3-(trifluoromethyl)-1H-pyrazol-1-yl)methyl)-4-hydroxypiperidine-1-carboxamide], the half-inhibitory concentration (IC50) was < 10 nM.
Still for that read-out and setting: the same measure for `CC(C)c1nn(C2CC3(C2)CN(C2(C)CCOC2)C3)cc1Nc1ncc(-c2ccc(Cl)c(O[C@@H](C)Cn3cnnn3)c2)cn1` (stereo partly drawn) [Example 956, 5-(3-(((S)-1-(1H-tetrazol-1-yl)propan-2-yl)oxy)-4-chlorophenyl)-N-(3-isopropyl-1-(2-(3-methyltetrahydrofuran-3-yl)-2-azaspiro[3.3]heptan-6-yl)-1H-pyrazol-4-yl)pyrimidin-2-amine]: < 10 nM; for `CC(Cn1cnnn1)Oc1cc(-c2cnc(Nc3cn(CC4(O)CCC(O)CC4)nc3OCC(F)(F)F)nc2)ccc1Cl` [Example 907, cis-1-((4-((5-(3-(((S)-1-(1H-tetrazol-1-yl)propan-2-yl)oxy)-4-chlorophenyl)pyrimidin-2-yl)amino)-3-(2,2,2-trifluoroethoxy)-1H-pyrazol-1-yl)methyl)cyclohexane-1,4-diol]: < 10 nM; for `C[C@@H](COC(F)F)Oc1cc(-c2cnc(Nc3cn(C4CC5(C4)CN(C4CCOCC4)C5)nc3OCC(F)(F)F)nc2)ccc1C#N` [Example 881, (S)-2-((1-(difluoromethoxy)propan-2-yl)oxy)-4-(2-((1-(2-(tetrahydro-2H-pyran-4-yl)-2-azaspiro[3.3]heptan-6-yl)-3-(2,2,2-trifluoroethoxy)-1H-pyrazol-4-yl)amino)pyrimidin-5-yl)benzonitrile]: < 10 nM.

The assay is the same for the next values; noted with them: Table 2; CaMKIIδ binding assay, activity given as class A/B/C.
For the compound `Cc1noc(C)c1Cn1cc(Nc2ncc(-c3ccc(Cl)c(O[C@@H](C)Cn4cnnn4)c3)cn2)c(C(F)(F)F)n1` [Example 734, (S)-5-(3-((1-(1H-tetrazol-1-yl)propan-2-yl)oxy)-4-chlorophenyl)-N-(1-((3,5-dimethylisoxazol-4-yl)methyl)-3-(trifluoromethyl)-1H-pyrazol-4-yl)pyrimidin-2-amine], the IC50 was 10 to 100 nM.
Same read-out and setting: the result for `C[C@@H](Cn1cnnn1)Oc1cc(-c2cnc(Nc3cn(C4CC4)nc3OCC(F)(F)F)nc2)ccc1Cl` [Example 774, (S)-5-(3-((1-(1H-tetrazol-1-yl)propan-2-yl)oxy)-4-chlorophenyl)-N-(1-cyclopropyl-3-(2,2,2-trifluoroethoxy)-1H-pyrazol-4-yl)pyrimidin-2-amine] reads < 10 nM.
Turning to `C[C@@H](Cn1cnnn1)Oc1cc(-c2cnc(Nc3cn([C@H]4CC[C@H](N5CC6(COC6)C5)CC4)nc3C(F)(F)F)nc2)ccc1Cl` [Example 822, 5-(3-(((S)-1-(1H-tetrazol-1-yl)propan-2-yl)oxy)-4-chlorophenyl)-N-(1-(trans-4-(2-oxa-6-azaspiro[3.3]heptan-6-yl)cyclohexyl)-3-(trifluoromethyl)-1H-pyrazol-4-yl)pyrimidin-2-amine], the concentration for half-maximal inhibition (IC50) is < 10 nM.
Still for that read-out and setting: the same measure for `C[C@@H](Cn1cnnn1)Oc1cc(-c2cnc(Nc3cn(C4CCN(C5CCC5)CC4)nc3OCCF)nc2)ccc1Cl` [Example 826, (S)-5-(3-((1-(1H-tetrazol-1-yl)propan-2-yl)oxy)-4-chlorophenyl)-N-(1-(1-cyclobutylpiperidin-4-yl)-3-(2-fluoroethoxy)-1H-pyrazol-4-yl)pyrimidin-2-amine]: < 10 nM.
On the same count and under the same terms, the result for `C[C@@H](Cn1cnnn1)Oc1cc(-c2cnc(Nc3cn(CC(F)(F)F)nc3OCC(F)(F)F)nc2)ccc1Cl` [Example 756, (S)-5-(3-((1-(1H-tetrazol-1-yl)propan-2-yl)oxy)-4-chlorophenyl)-N-(3-(2,2,2-trifluoroethoxy)-1-(2,2,2-trifluoroethyl)-1H-pyrazol-4-yl)pyrimidin-2-amine] reads 10 to 100 nM.
The same measure, in the same setting: the result for `C[C@@H](Cn1cnnn1)Oc1cc(-c2cnc(Nc3sc4c(c3C#N)CCCC4)nc2)ccc1Cl` [Example 752, (S)-2-((5-(3-((1-(1H-tetrazol-1-yl)propan-2-yl)oxy)-4-chlorophenyl)pyrimidin-2-yl)amino)-4,5,6,7-tetrahydrobenzo[b]thiophene-3-carbonitrile] reads 10 to 100 nM.

Still in this assay, the particulars now being: Table 2; activity class for CaMKIIδ.
The compound `C[C@@H](Cn1cnnn1)Oc1cc(-c2cnc(Nc3c[nH]nc3C(F)(F)F)nc2)ccc1Cl` [Example 628, (S)-5-(3-((1-(1H-tetrazol-1-yl)propan-2-yl)oxy)-4-chlorophenyl)-N-(3-(trifluoromethyl)-1H-pyrazol-4-yl)pyrimidin-2-amine] displayed an IC50 of 10 to 100 nM.
Still for that read-out and setting: the result for `COc1ccc(N2CC(CN3CCOCC3)C2)cc1Nc1ncc(-c2ccc(Cl)c(O[C@@H](C)Cn3cnnn3)c2)cn1` [Example 656, (S)-5-(3-((1-(1H-tetrazol-1-yl)propan-2-yl)oxy)-4-chlorophenyl)-N-(2-methoxy-5-(3-(morpholinomethyl)azetidin-1-yl)phenyl)pyrimidin-2-amine] reads < 10 nM; that for `COc1nc(N2CCN(C3CC3)CC2)ccc1Nc1ncc(-c2ccc(Cl)c(O[C@@H](C)Cn3cnnn3)c2)cn1` [Example 671, (S)-5-(3-((1-(1H-tetrazol-1-yl)propan-2-yl)oxy)-4-chlorophenyl)-N-(6-(4-cyclopropylpiperazin-1-yl)-2-methoxypyridin-3-yl)pyrimidin-2-amine], < 10 nM.
Regarding `COc1cc(N2CCOC(CO)C2)ccc1Nc1ncc(-c2ccc(Cl)c(O[C@@H](C)Cn3cnnn3)c2)cn1` (stereo partly drawn) [Example 594, (4-(4-((5-(3-(((S)-1-(1H-tetrazol-1-yl)propan-2-yl)oxy)-4-chlorophenyl)pyrimidin-2-yl)amino)-3-methoxyphenyl)morpholin-2-yl)methanol], the IC50 was in the range of 10 to 100 nM.
On the same count and under the same terms, the result for `CCc1nn(C2CCN(C3CCOCC3)CC2)cc1Nc1ncc(-c2ccc(Cl)c(O[C@@H](C)Cn3cnnn3)c2)cn1` [Example 632, (S)-5-(3-((1-(1H-tetrazol-1-yl)propan-2-yl)oxy)-4-chlorophenyl)-N-(3-ethyl-1-(1-(tetrahydro-2H-pyran-4-yl)piperidin-4-yl)-1H-pyrazol-4-yl)pyrimidin-2-amine] reads < 10 nM; that for `C[C@@H](Cn1cnnn1)Oc1cc(-c2cnc(Nc3cn(CC4CNC4)nc3C(F)(F)F)nc2)ccc1Cl` [Example 597, (S)-5-(3-((1-(1H-tetrazol-1-yl)propan-2-yl)oxy)-4-chlorophenyl)-N-(1-(azetidin-3-ylmethyl)-3-(trifluoromethyl)-1H-pyrazol-4-yl)pyrimidin-2-amine], < 10 nM.
Take `Cc1cc(Nc2ncc(-c3ccc(Cl)c(O[C@@H](C)Cn4cnnn4)c3)cn2)n(-c2ccccn2)n1` [Example 660, (S)-5-(3-((1-(1H-tetrazol-1-yl)propan-2-yl)oxy)-4-chlorophenyl)-N-(3-methyl-1-(pyridin-2-yl)-1H-pyrazol-5-yl)pyrimidin-2-amine]: the IC50 is ≥ 100 nM.

Source of the values: patent publication US10543212B2, “Substituted amines for treating cardiac diseases” (Cardurion Pharmaceuticals, LLC, priority 2017, dated 2020).
